# Test results published in patent publication US12157741B2, “Macrocyclic inhibitors of DYRK1A” (DANA-FARBER CANCER INSTITUTE, INC., priority 2018, dated 2024).
# Read-outs that look alike come from different tables or passages of the source.
# Tests used:
# Assay type in all cases: binding
# various enzymes [1] = molecular target: various enzymes (Homo sapiens, UniProt O94768); conditions: compound 1 uM
# Protocol: (§1) Ambit profiling was conducted in accordance with the manufacturer's instructions.
# various enzymes [2] = molecular target: various enzymes (Homo sapiens, UniProt P00519, F317I); conditions: compound 1 uM
# Chain of various enzymes (Homo sapiens, UniProt P00519, F317I) (P00519 whole entry F317I): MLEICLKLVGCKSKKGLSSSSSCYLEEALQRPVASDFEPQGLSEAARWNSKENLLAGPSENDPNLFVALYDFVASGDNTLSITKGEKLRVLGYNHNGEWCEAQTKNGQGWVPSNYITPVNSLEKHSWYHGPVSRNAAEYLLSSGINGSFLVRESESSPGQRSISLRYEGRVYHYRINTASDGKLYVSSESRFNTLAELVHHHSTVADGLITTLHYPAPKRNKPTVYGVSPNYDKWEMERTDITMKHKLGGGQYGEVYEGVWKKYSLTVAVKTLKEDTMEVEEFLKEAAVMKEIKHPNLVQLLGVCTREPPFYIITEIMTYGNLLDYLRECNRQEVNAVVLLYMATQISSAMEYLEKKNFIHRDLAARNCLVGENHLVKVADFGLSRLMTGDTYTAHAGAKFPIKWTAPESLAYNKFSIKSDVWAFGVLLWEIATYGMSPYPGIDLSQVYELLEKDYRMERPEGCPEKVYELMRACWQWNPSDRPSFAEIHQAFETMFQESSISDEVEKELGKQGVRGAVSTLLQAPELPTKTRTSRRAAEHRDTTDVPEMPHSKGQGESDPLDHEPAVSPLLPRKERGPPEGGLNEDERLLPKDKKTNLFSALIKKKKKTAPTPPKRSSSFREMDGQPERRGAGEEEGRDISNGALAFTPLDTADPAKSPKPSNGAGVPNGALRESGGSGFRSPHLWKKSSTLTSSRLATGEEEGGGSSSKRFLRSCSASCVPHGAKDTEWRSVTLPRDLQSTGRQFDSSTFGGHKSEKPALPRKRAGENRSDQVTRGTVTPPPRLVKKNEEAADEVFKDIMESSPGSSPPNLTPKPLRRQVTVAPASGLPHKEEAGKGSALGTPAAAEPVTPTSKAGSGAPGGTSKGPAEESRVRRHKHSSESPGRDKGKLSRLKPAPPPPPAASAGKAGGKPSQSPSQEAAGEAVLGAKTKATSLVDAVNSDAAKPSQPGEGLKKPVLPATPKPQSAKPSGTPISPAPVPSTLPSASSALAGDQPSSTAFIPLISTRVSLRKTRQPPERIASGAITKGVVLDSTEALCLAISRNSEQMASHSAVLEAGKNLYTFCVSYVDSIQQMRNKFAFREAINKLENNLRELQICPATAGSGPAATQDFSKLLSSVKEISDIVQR
# Protocol: as §1
# various enzymes [3] = molecular target: various enzymes (Homo sapiens, UniProt P07949, M918T)
# Protocol: as §1
# various enzymes [4] = molecular target: various enzymes (Homo sapiens, UniProt P08069); conditions: compound 1 uM
# Protocol: as §1
# various enzymes [5] = molecular target: various enzymes (Homo sapiens, UniProt P21709); conditions: compound 1 uM
# Protocol: as §1
# various enzymes [6] = molecular target: various enzymes (Homo sapiens, UniProt P42336, H1047L)
# Protocol: as §1
# various enzymes [7] = molecular target: various enzymes (Homo sapiens, UniProt P48730); conditions: compound 1 uM
# Protocol: as §1
# various enzymes [8] = molecular target: various enzymes (Homo sapiens, UniProt P51812); conditions: compound 1 uM
# Chain of various enzymes (Homo sapiens, UniProt P51812) (P51812 whole entry): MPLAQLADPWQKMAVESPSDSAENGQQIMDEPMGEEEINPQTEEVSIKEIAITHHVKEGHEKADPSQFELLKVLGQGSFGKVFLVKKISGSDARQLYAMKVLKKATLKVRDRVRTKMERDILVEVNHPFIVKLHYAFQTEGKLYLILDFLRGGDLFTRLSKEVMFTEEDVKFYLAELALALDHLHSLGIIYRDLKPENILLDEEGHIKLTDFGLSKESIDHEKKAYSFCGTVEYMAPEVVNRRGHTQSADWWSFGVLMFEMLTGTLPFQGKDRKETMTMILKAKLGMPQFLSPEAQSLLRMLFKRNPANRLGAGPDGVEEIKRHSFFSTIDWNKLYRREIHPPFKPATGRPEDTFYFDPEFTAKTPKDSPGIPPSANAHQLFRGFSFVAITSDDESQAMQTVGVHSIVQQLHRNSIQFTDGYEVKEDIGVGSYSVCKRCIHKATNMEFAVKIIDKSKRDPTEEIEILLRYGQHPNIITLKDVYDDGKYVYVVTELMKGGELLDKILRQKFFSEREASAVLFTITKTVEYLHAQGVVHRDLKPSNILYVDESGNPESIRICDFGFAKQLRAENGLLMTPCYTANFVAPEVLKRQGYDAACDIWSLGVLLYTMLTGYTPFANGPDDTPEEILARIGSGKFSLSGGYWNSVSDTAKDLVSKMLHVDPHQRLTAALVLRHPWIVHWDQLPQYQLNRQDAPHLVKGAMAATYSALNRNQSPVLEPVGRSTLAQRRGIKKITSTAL
# Protocol: as §1
# various enzymes [9] = molecular target: various enzymes (Homo sapiens, UniProt Q04912); conditions: compound 1 uM
# Protocol: as §1
# various enzymes [10] = molecular target: various enzymes (Homo sapiens, UniProt Q05655); conditions: compound 1 uM
# Chain of various enzymes (Homo sapiens, UniProt Q05655) (Q05655 whole entry): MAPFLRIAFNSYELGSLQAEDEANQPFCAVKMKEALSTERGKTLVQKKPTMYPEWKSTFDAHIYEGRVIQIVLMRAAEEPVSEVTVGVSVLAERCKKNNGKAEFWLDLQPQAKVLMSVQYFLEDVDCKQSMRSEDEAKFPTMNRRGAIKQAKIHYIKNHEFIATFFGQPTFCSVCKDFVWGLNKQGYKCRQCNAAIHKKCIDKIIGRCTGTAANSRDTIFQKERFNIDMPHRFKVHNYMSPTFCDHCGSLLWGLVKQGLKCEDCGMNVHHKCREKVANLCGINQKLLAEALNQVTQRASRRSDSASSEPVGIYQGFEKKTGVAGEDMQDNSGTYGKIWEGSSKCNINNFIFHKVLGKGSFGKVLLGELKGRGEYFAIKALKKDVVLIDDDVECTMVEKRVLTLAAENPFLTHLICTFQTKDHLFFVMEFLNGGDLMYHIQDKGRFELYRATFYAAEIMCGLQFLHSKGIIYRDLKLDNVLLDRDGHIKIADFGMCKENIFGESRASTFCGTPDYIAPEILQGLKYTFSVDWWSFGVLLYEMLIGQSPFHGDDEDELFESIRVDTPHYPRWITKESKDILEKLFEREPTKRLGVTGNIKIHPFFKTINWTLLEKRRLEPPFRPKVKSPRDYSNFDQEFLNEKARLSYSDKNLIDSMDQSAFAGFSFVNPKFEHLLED
# Protocol: as §1
# various enzymes [11] = molecular target: various enzymes (Homo sapiens, UniProt Q08345); conditions: compound 1 uM
# Protocol: as §1
# various enzymes [12] = molecular target: various enzymes (Homo sapiens, UniProt Q13464); conditions: compound 1 uM
# Protocol: as §1
# various enzymes [13] = molecular target: various enzymes (Homo sapiens, UniProt Q13523); conditions: compound 1 uM
# Chain of various enzymes (Homo sapiens, UniProt Q13523) (Q13523 whole entry): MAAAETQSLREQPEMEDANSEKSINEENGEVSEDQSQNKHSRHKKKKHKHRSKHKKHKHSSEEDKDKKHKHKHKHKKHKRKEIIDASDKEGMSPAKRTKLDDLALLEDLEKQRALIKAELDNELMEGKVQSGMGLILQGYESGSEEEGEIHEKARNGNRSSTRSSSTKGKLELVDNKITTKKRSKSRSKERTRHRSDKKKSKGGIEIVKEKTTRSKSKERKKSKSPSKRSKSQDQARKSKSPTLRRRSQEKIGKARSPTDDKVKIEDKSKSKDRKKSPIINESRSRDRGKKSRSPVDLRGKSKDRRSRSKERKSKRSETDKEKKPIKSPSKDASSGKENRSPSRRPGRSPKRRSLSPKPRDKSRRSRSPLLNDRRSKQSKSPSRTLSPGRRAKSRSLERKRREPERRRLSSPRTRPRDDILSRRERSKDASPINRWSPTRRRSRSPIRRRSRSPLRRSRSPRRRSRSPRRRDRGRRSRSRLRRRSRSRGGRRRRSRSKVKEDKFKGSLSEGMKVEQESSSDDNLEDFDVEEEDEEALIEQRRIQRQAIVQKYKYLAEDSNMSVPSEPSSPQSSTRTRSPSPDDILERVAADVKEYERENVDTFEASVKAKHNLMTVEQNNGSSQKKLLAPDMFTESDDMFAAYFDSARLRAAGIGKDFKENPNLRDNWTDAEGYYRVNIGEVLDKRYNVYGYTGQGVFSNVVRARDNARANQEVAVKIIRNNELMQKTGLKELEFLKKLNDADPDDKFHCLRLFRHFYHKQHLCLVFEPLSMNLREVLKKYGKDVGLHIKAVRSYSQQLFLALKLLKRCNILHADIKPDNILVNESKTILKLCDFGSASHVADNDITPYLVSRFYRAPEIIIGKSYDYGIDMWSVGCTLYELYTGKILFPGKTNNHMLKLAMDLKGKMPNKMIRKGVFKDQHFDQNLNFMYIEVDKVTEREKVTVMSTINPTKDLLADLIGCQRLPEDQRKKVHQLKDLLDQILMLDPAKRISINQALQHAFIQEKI
# Protocol: as §1
# various enzymes [14] = molecular target: various enzymes (Homo sapiens, UniProt Q16288); conditions: compound 1 uM
# Protocol: as §1
# various enzymes [15] = molecular target: various enzymes (Homo sapiens, UniProt Q8IW41); conditions: compound 1 uM
# Protocol: as §1
# various enzymes [16] = molecular target: various enzymes (Homo sapiens, UniProt Q8NE63); conditions: compound 1 uM
# Protocol: as §1
# various enzymes [17] = molecular target: various enzymes (Homo sapiens, UniProt Q8NEB9); conditions: compound 1 uM
# Protocol: as §1
# various enzymes [18] = molecular target: various enzymes (Homo sapiens, UniProt Q92918); conditions: compound 1 uM
# Protocol: as §1
# various enzymes [19] = molecular target: various enzymes (Homo sapiens, UniProt Q96SB4); conditions: compound 1 uM
# Chain of various enzymes (Homo sapiens, UniProt Q96SB4) (Q96SB4 whole entry): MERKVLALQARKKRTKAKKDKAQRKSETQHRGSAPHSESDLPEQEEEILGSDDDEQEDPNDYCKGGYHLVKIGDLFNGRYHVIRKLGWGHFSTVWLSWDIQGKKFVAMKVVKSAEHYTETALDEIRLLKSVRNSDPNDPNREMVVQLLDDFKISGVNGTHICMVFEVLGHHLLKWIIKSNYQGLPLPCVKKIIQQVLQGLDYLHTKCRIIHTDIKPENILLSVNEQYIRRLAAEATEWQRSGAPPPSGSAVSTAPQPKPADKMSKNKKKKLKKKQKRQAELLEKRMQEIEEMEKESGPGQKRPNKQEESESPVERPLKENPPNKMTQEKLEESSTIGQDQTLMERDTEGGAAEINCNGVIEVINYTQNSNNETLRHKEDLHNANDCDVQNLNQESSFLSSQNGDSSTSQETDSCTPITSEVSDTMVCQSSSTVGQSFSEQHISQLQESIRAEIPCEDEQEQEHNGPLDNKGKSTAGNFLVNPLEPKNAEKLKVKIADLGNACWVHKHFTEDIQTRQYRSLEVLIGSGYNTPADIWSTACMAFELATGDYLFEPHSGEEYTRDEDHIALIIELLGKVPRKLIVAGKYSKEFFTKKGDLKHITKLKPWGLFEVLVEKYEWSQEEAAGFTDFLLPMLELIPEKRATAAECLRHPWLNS
# Protocol: as §1
# various enzymes [20] = molecular target: various enzymes (Homo sapiens, UniProt Q9BVS4); conditions: compound 1 uM
# Protocol: as §1
# various enzymes [21] = molecular target: various enzymes (Homo sapiens, UniProt Q9HC98); conditions: compound 1 uM
# Protocol: as §1
# various enzymes [22] = molecular target: T1, various enzymes (Homo sapiens, UniProt Q9NRM7); conditions: compound 1 uM
# T1 sequence (Q9NRM7 1-1088): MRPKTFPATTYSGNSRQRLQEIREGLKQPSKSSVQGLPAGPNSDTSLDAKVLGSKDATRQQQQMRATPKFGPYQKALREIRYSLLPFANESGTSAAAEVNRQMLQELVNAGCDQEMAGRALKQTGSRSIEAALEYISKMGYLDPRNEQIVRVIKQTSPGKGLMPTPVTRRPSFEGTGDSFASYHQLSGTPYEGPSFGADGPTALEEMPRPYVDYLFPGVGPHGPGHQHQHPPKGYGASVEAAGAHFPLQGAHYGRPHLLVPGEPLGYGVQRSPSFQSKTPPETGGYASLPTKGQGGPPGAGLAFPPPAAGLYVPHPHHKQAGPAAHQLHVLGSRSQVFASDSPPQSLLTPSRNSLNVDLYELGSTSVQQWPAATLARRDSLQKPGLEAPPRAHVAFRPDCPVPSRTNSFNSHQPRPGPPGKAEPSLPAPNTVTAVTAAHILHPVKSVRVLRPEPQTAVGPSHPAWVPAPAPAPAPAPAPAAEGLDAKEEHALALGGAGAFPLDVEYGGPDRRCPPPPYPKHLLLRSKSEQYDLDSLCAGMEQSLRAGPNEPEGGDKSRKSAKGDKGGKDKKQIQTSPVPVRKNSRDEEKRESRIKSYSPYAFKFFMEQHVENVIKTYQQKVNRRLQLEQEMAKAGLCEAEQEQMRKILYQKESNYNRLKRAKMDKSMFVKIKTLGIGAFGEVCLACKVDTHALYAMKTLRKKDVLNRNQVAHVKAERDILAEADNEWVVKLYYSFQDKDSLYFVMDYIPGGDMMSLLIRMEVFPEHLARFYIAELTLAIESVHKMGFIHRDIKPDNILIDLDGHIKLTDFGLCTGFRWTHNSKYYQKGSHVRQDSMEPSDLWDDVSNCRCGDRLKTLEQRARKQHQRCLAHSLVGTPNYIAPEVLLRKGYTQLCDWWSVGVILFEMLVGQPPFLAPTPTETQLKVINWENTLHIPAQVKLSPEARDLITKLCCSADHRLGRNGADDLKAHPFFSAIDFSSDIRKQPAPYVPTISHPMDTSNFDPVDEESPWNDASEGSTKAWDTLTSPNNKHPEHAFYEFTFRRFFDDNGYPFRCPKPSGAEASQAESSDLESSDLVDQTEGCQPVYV
# Protocol: as §1
# various enzymes [23] = molecular target: various enzymes (Homo sapiens, UniProt Q9NY57); conditions: compound 1 uM
# Protocol: as §1
# various enzymes [24] = molecular target: various enzymes (Homo sapiens, UniProt Q9Y2I7); conditions: compound 1 uM
# Protocol: as §1
# various enzymes [25] = molecular target: various enzymes (Plasmodium falciparum, UniProt P61075)
# Chain of various enzymes (Plasmodium falciparum, UniProt P61075) (P61075 whole entry): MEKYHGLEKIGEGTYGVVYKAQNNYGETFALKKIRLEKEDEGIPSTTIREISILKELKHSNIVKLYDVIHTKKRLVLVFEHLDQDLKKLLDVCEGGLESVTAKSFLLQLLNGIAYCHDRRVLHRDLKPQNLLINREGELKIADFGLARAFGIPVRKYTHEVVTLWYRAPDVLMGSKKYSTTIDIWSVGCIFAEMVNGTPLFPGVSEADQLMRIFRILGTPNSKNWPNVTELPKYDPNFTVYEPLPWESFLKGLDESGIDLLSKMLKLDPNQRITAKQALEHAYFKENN
# Protocol: as §1
# Chain of various enzymes (Homo sapiens, UniProt O94768) (O94768 whole entry): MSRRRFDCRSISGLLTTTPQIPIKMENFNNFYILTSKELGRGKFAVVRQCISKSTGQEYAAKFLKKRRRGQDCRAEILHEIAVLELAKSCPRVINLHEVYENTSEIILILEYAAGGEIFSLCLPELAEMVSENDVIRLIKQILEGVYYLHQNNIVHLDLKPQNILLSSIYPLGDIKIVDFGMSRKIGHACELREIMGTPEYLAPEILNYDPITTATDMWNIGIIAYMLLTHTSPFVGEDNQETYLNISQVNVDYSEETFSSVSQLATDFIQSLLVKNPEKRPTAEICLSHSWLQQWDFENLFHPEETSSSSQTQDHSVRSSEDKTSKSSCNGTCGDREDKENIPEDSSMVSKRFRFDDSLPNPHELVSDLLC
Compound,Ambit profiling: DRAK2 (various enzymes [1]),Ambit profiling: ABL1(F317I)-nonphosphorylated (various enzymes [2]),Ambit profiling: ABL1(F317I)-phosphorylated (various enzymes [2]),Ambit profiling: IGF1R (various enzymes [4]),Ambit profiling: EPHA1 (various enzymes [5]),Ambit profiling: RSK2(Kin.Dom.1-N-terminal) (various enzymes [8]),Ambit profiling: RSK2(Kin.Dom.2-C-terminal) (various enzymes [8]),Ambit profiling: MST1R (various enzymes [9]),Ambit profiling: PRKCD (various enzymes [10]),Ambit profiling: DDR1 (various enzymes [11]),Ambit profiling: ROCK1 (various enzymes [12]),Ambit profiling: PRP4 (various enzymes [13]),Ambit profiling: TRKC (various enzymes [14]),Ambit profiling: MAPKAPK5 (various enzymes [15]),Ambit profiling: HIPK4 (various enzymes [16]),Ambit profiling: VPS34 (various enzymes [17]),Ambit profiling: HPK1 (various enzymes [18]),Ambit profiling: SRPK1 (various enzymes [19]),Ambit profiling: RIOK2 (various enzymes [20]),Ambit profiling: NEK6 (various enzymes [21]),also measured
"CC(C)N1Cc2nn(C)cc2-c2cnc3[nH]cc(c3c2)-c2cn(nc2C(F)(F)F)CCCC1=O [Compound 45, (Z)-5-isopropyl-31-methyl-13-(trifluoromethyl)-11H,21H,31H-5-aza-2(3,5)-pyrrolo[2,3-b]pyridina-1(4,1),3(4,3)-dipyrazolacyclononaphan-6-one]",100,87,71,86,26,0.9,100,70,71,0.15,95,36,0.1,100,2.1,100,5.9,4.5,74,98,Ambit profiling: RET(M918T) (various enzymes [3]; compound 1 uM): 0.2; Ambit profiling: PIK3CA(H1047L) (various enzymes [6]; compound 1 uM): 100; Ambit profiling: CSNK1D (various enzymes [7]): 28; Ambit profiling: LATS2 (various enzymes [22]): 100; Ambit profiling: YANK2 (various enzymes [23]): 100; Ambit profiling: PIKFYVE (various enzymes [24]): 13; Ambit profiling: PFPK5(P. falciparum) (various enzymes [25]; compound 1 uM): 82
"COc1c2c(nn1C)CN(C(C)C)C(=O)CCCn1cc(c(C(F)(F)F)n1)-c1c[nH]c3ncc-2cc13 [Compound 50, (Z)-5-isopropyl-35-methoxy-31-methyl-13-(trifluoromethyl)-11H,21H,31H-5-aza-2(3,5)-pyrrolo[2,3-b]pyridina-1(4,1),3(4,3)-dipyrazolacyclononaphan-6-one]",98,56,19,69,29,1.2,100,42,43,0.35,79,87,0,100,1.5,83,0,30,64,100,Ambit profiling: RET(M918T) (various enzymes [3]): 0.25; Ambit profiling: PIK3CA(H1047L) (various enzymes [6]): 83; Ambit profiling: CSNK10 (various enzymes [7]): 11; Ambit profiling: LATS2 (various enzymes [22]): 97; Ambit profiling: YANK2 (various enzymes [23]): 45; Ambit profiling: PIKFYVE (various enzymes [24]): 11; Ambit profiling: PFPK5(P. falciparum) (various enzymes [25]): 79
